Measurements published in EP4306106A1, “NITRO-CONTAINING COMPOUNDS, COMPOSITIONS AND USES THEREOF” (Universidade de Aveiro, priority 2022, dated 2024).

System: total HDAC
Assay: In vitro total HDAC activity (Fluor-de-Lys, HeLa nuclear extract)
Assay type: biochemical, human
Conditions: nuclear extract from HeLa cells, 1µM (footnote a)

| SMILES | %Inhibition of 1µM |
| --- | --- |
| CC(/C=C/C(=O)NO)=C\[C@@H](C)C(=O)c1ccc(N(C)C)cc1 [Trichostatin A] | 90^a % |

Target: T1, recombinant protein HDAC8 (Homo sapiens, UniProt Q9BY41)
T1 construct: purchased Enzo Life Sciences
T1 sequence (Q9BY41 1-377): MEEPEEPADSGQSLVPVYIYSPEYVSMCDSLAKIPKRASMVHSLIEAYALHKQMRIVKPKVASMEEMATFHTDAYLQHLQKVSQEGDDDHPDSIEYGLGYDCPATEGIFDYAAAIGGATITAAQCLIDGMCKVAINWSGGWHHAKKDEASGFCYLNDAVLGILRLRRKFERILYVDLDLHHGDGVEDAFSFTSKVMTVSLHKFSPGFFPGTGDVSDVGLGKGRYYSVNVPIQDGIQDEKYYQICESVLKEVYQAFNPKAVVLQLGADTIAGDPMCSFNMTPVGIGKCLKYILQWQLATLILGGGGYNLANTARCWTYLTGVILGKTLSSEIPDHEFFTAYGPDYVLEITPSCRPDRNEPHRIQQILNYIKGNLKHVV
Assay: In vitro HDAC8 isoenzyme activity (Fluor-de-Lys-HDAC8 substrate)
Assay type: biochemical
Conditions: 1 U/well, substrate 50 µM
Method: In vitro HDAC8 isoenzyme activity was tested using 1 U/well of recombinant protein HDAC8 (Enzo® Life Sciences) incubated with the Fluor-de-Lys®-HDAC8 substrate (50 µM) for 20 min at room temperature. Reactions were stopped by adding a developer II solution (Fluor-de-Lys® developer II concentrate, Enzo® Life Sciences) containing 2 µM of TSA. After 45 min of incubation at room temperature, fluorescence is measured as for total HDAC activity.

| SMILES | IC50 [µM] |
| --- | --- |
| O=C(c1cc(C(=O)c2cc([N+](=O)[O-])ccc2O)cc([N+](=O)[O-])c1)c1cc([N+](=O)[O-])ccc1O [Compound 5, (5-Nitro-1,3-phenylene)bis[(2-hydroxy-5-nitrophenyl)methanone]] | 27 |
| Nc1cc(C(=O)c2cc([N+](=O)[O-])ccc2O)cnc1-c1ccccc1 [drawing 39] | 74 |
| N#Cc1ccc(-c2ncc(C(=O)c3cc([N+](=O)[O-])ccc3O)cc2N)cc1 [drawing 40] | 58 |

System: total HDAC
Assay: In vitro total HDAC activity (Fluor-de-Lys, HeLa nuclear extract)
Assay type: biochemical, human
Conditions: screening at 100 µM, result in words
Method: In vitro total HDAC activity was measured according to manufacturer's instructions using a nuclear extract from HeLa cells (human cervical cancer cell line) as HDAC source incubated with the Fluor-de-Lys® substrate (50 µM) for 20 min at room temperature (Fluor-de-Lys®, Enzo® Life Sciences, Antwerpen, Belgium). Reaction was stopped by addition of a developing solution (Fluor-de-Lys® developer I concentrate, Enzo® Life Sciences) containing trichostatin A (TSA) (2 µM). After 15 min of incubation at room temperature, fluorescence signal was measured on a fluorescence microplate reader (SYNERGY HTX multi-mode reader) with an exciting wavelength of 360 nm and emission wavelength of 460 nm. All dilutions of tested compounds were prepared in dimethylsulfoxide (DMSO).
Representative examples of 3-aminopyridines and 3,5-disubstituted nitrobenzenes were screened for their total HDAC inhibition capacity at 100 µM (Table 2). It was observed that only nitro-containing examples were active in the total HDAC screening assay (compounds 1, 3, 9 and 5), which moved forward to the specific HDAC8 isoenzyme assay (Table 3).

| SMILES | total HDAC inhibition capacity |
| --- | --- |
| O=C(c1cc(C(=O)c2cc([N+](=O)[O-])ccc2O)cc([N+](=O)[O-])c1)c1cc([N+](=O)[O-])ccc1O [Compound 5, (5-Nitro-1,3-phenylene)bis[(2-hydroxy-5-nitrophenyl)methanone]] | active |
| Nc1cc(C(=O)c2cc([N+](=O)[O-])ccc2O)cnc1-c1ccccc1 [Compound 1, (5-Amino-6-phenylpyridin-3-yl)(2-hydroxy-5-nitrophenyl)methanone] | active |
| Nc1cc(C(=O)c2ccccc2O)cnc1-c1ccc([N+](=O)[O-])cc1 [Compound 3, [5-Amino-6-(4-nitrophenyl)pyridin-3-yl](2-hydroxyphenyl)methanone] | active |
| N#Cc1ccc(-c2ncc(C(=O)c3cc([N+](=O)[O-])ccc3O)cc2N)cc1 [Compound 9, 4-[3-amino-5-(2-hydroxy-5-nitrobenzoyl)pyridin-2-yl]benzonitrile] | active |

Same assay, conditions: total HDAC activity, nuclear extract from HeLa cells, compound at 100 µM

| SMILES | %Inhibition at 100 µM |
| --- | --- |
| Cc1cc(C(=O)c2cc(C(=O)c3cc(C)cc([N+](=O)[O-])c3O)cc([N+](=O)[O-])c2)c(O)c([N+](=O)[O-])c1 | 65% |
| O=C(c1cc(C(=O)c2cc(Cl)ccc2O)cc([N+](=O)[O-])c1)c1cc(Cl)ccc1O | Inactive |
| Nc1cc(C(=O)c2ccccc2O)cnc1-c1ccc2ccccc2c1 | Inactive |
| COc1cccc(O)c1C(=O)c1cc(C(=O)c2c(O)cccc2OC)cc([N+](=O)[O-])c1 | Inactive |
| O=C(c1cc(C(=O)c2ccccc2O)cc([N+](=O)[O-])c1)c1ccccc1O | Inactive |
| Nc1cc(C(=O)c2cc([N+](=O)[O-])ccc2O)cnc1-c1ccccc1 [drawing 28] | 78% |
| N#Cc1ccc(-c2ncc(C(=O)c3cc([N+](=O)[O-])ccc3O)cc2N)cc1 [drawing 29] | 82% |
| Nc1cc(C(=O)c2ccccc2O)cnc1-c1ccccc1 | Inactive |
| Nc1cc(C(=O)c2ccccc2O)cnc1-c1ccc([N+](=O)[O-])cc1 [drawing 30] | 67% |
| Cc1ccc(O)c(C(=O)c2cc(C(=O)c3cc(C)ccc3O)cc([N+](=O)[O-])c2)c1 | Inactive |
| O=C(c1cc(C(=O)c2cc([N+](=O)[O-])ccc2O)cc([N+](=O)[O-])c1)c1cc([N+](=O)[O-])ccc1O [drawing 37] | 73% |
| Cc1cc(C(=O)c2cnc(-c3ccccc3)c(N)c2)c(O)c([N+](=O)[O-])c1 | 67% |
